We go through one compound from patent US5334595A, “Pyrazoloquinolones as anticancer agents” (priority 1992, dated 1994).

The structures appear in SMILES notation.

Holding throughout (set-up): species or system mice
Data set [1] has as its system lung carcinoma No. 12 (LC 12). The data set can be described thus: In vivo antitumor assay, LC12(sc). The settings on record: drug iv, qd 3,5, exp 1161. The text has this: (§1) Mice: Inbred: C3H/He and NCR-nu; and Hybrids: B6D2F1 (C57BL/6 females×DBA/2 males, CD2F1 (Balb/c females×DBS/2 males) and B6C3fl (C57BL/6×C3H) were bred at Wayne State University from strains obtained from the Frederick Cancer Research Facility, Frederick, Maryland or purchased from commercial suppliers.
(§2) Tumors: Murine Tumor: P388 and an adriamycin-resistant (ADR) subline P388/ADR leukemia and the following transplantable solid tumors of mice were used for in vivo testing: B16 melanoma (B16), pancreatic ductal adenocarcinoma No. 03 (Pane 03), colon adenocarcinoma No. 38 (colo 38), lung carcinoma No. 12 (LC 12), mammary ductal adenocarcinoma No. 16/C (Mam16C) and an adriamycin-resistant subline Mam16C/ADR. Human tumor: A single human tumor, mammary carcinoma MX-1 was used for in vivo testing. All tumors are in the Developmental Therapeutics Program frozen tumor respository, maintained by the Biological Testing Branch, Frederick Maryland. Each has a detailed description, code identification number, and list of references at the National Tumor Repository. Murine tumors were maintained in the mouse strain of origin and were transplanted in the appropriate F1 hydrid (or the strain of origin) for therapy trials. […]
(§3) Quantitative end points used to assess antitumor activity included % Increased Life Span (% ILS), Tumor Cell Kill (Log10 kill), and Tumor Growth Inhibition (T/C). […]
(§4) Tumors were measured with a caliper once or twice weekly (as needed) until either tumors exceeded 1600 mg or cure was assured. […] When the control group tumors reached approximately 750-1500 mg in size (median of group), the median tumor weight of each group was determined (including zeros). […] The % T/C was calculated from the following formula for solid murine tumor models: [formula] where T and C are median tumor weights of the treatment and control groups, respectively. […] By convention the T/C value for the mammary carcinoma MX-1 models is calculated by the parameter of change in tumor weight .

The nature of data set [2]: In vivo antitumor assay, LC12(sc). The settings on record: mouse, in vivo, drug iv, qd 3,5, exp 1161, MTD not achieved, maximum dose tested.
From the text: as §1, §2, §3, §4

Data set [3] concerns adriamycin-resistant (ADR) subline P388/ADR leukemia. As to the kind of experiment: In vivo antitumor assay, P388/ADR(iv). The settings on record: drug iv.
From the text: as §1
(§5) Tumors: Murine Tumor: P388 and an adriamycin-resistant (ADR) subline P388/ADR leukemia and the following transplantable solid tumors of mice were used for in vivo testing: B16 melanoma (B16), pancreatic ductal adenocarcinoma No. 03 (Pane 03), colon adenocarcinoma No. 38 (colo 38), lung carcinoma No. 12 (LC 12), mammary ductal adenocarcinoma No. 16/C (Mam16C) and an adriamycin-resistant subline Mam16C/ADR. Human tumor: A single human tumor, mammary carcinoma MX-1 was used for in vivo testing. All tumors are in the Developmental Therapeutics Program frozen tumor respository, maintained by the Biological Testing Branch, Frederick Maryland. Each has a detailed description, code identification number, and list of references at the National Tumor Repository. Murine tumors were maintained in the mouse strain of origin and were transplanted in the appropriate F1 hydrid (or the strain of origin) for therapy trials. Human mammary carcinoma MX-1 (MX1) was maintained as a subcutaneous implant in either athymic Swiss (Cr: NIH(S)-nu) or athymic random bred (NCR-nu) mice and transplanted in NCR-nu for therapy trials.
(§6) For P388 and P388/ADR leukemia studies the tumor cells were implanted either interperitoneally (IP) or intravenously (IV) on day zero and treatment was started on day one. For B16 melanoma (B16) studies, the tumor cells were implanted IP on day zero and treatment was started on day one. Titered controls were also included to facilitate the calculation of tumor cell kill. For mammary carcinoma MX-1 studies, tumors were implanted with 1) subcutaneously (sc) (14-mg fragment of sc donor tumor) in the axillary region or 2) under the subrenal capsule (SRC) (10×10×10 ocular micrometer unit fragment of sc donor tumor). Treatment started on the day after subrenal capsule tumor implant or when the subcutaneous tumor implant had reached 100-700 mg.
(§7) Quantitative end points used to assess antitumor activity included % Increased Life Span (% ILS), Tumor Cell Kill (Log10 kill), and Tumor Growth Inhibition (T/C). Long Term Survivors (45 or 60 day) were excluded from calculations of %ILS and Tumor Cell Kill.
(§8) Endpoints were calculated as follows: [formula] where Dt is the median day of death for treated and Dc is the median day of death for control groups. A % ILS ≥20 or ≥25 for P388 and B16 intraperitoneal models, respectively, is indicative of a significant degree of antitumor activity. A % ILS ≥75 or ≥50 for P388 and B16 intraperitoneal models, , respectively, is indicative of a high degree of antitumor activity and is the level used by National Cancer Institute to justify further development if other requirements are met (termed DN-2 level activity). Minimum quantitative activity limits for additional P388 models (e.g. P388/ADR and P388, IV) have not been defined. However, the activity limits specified for the intraperitoneal models may be applied as in the majority of instances the intraperitoneal models are found to be signficantly less challenging.
(§9) The log10 cell kill was calculated from the following formula: [formula] where T-C is the tumor difference in the median day of death between the treated (T) and the control (C) groups and Td is the tumor doubling time (in days), the latter estimated from the best fit straight line from a log-linear growth plot of the control-group tumors in exponential growth. The conversion of the T-C values to log10 cell kill is possible because the Td for tumors regrowing post-treatment approximated the Td values of the tumors in untreated control mice.

Data set [4] is described as follows: In vivo antitumor assay, P388/ADR(iv). The conditions noted are these: mouse, in vivo, iv, drug iv.
From the text: as §1, §5, §6, §7, §8, §9

In data set [5] the test system is adriamycin-resistant subline Mam16C/ADR. The data set can be described thus: In vivo antitumor assay, Mam16C/ADR. The conditions noted are these: drug iv, qd 1,3,5, exp 1120A.
From the text: as §1
as §2, with “Repository.” for “Repository. Murine tumors were maintained in the mouse strain of origin and were transplanted in the appropriate F1 hydrid (or the strain of origin) for therapy trials.”
as §3
(§10) The log10 cell kill was calculated from the following formula: [formula] where T-C is the tumor difference in the median day of death between the treated (T) and the control (C) groups and Td is the tumor doubling time (in days), the latter estimated from the best fit straight line from a log-linear growth plot of the control-group tumors in exponential growth. […]
(§11) Tumors were measured with a caliper once or twice weekly (as needed) until either tumors exceeded 1600 mg or cure was assured. […] When the control group tumors reached approximately 750-1500 mg in size (median of group), the median tumor weight of each group was determined (including zeros). […] The % T/C was calculated from the following formula for solid murine tumor models: [formula] where T and C are median tumor weights of the treatment and control groups, respectively. […]

Data set [6] can be described thus: In vivo antitumor assay, Mam16C/ADR. The settings on record: mouse, in vivo, drug iv, qd 1,3,5, exp 1120A, footnote 2: 2 lower doses equally active to modestly more active.
From the text: as §1
as §2, with “Repository.” for “Repository. Murine tumors were maintained in the mouse strain of origin and were transplanted in the appropriate F1 hydrid (or the strain of origin) for therapy trials.”
as §3, §10, §11

With `Cc1cc(-c2c(F)cc3c4nn(CCN(C)C)c(=O)c-4cn(C4CC4)c3c2F)cc(C)n1.O=C(O)/C=C/C(=O)O` [Example 1, 5-Cyclopropyl-6,8-difluoro-2,5-dihydro-2-[2-(dimethylamino)-ethyl]-7-(2,6-dimethyl-4-pyridinyl)-3H-pyrazolo[4,3-c]quinolin-3-one (E)-2-butendioate (1:1)], the “Log Kill” value in data set [1] was determined as 0.76; in data set [3] (qd 1-3, exp 1149B), 1.3; in data set [3] (qd 1-5, exp 1073B), 0.93; in data set [5], 0.50. The T/C % is on record as 25% in data set [1] and 26% in data set [5]. Further, the MTD in data set [2] was more than 35 mg/kg; in data set [4] (qd 1-3, exp 1149B) it was 52 mg/kg; in data set [4] (qd 1-5, exp 1073B), 48 mg/kg; in data set [6], 58 mg/kg. For the same compound, the ILS % is listed as 27% in data set [3] (qd 1-3, exp 1149B) and 14.3% in data set [3] (qd 1-5, exp 1073B).
